Broadly, the IC50 is the concentration needed to halve the response being measured.

What all share (format): biochemical
In test [1] the target is T1, h12-LOX (Homo sapiens, UniProt P18054).
T1 construct: His tag; made in house
T1 sequence (P18054 1-663): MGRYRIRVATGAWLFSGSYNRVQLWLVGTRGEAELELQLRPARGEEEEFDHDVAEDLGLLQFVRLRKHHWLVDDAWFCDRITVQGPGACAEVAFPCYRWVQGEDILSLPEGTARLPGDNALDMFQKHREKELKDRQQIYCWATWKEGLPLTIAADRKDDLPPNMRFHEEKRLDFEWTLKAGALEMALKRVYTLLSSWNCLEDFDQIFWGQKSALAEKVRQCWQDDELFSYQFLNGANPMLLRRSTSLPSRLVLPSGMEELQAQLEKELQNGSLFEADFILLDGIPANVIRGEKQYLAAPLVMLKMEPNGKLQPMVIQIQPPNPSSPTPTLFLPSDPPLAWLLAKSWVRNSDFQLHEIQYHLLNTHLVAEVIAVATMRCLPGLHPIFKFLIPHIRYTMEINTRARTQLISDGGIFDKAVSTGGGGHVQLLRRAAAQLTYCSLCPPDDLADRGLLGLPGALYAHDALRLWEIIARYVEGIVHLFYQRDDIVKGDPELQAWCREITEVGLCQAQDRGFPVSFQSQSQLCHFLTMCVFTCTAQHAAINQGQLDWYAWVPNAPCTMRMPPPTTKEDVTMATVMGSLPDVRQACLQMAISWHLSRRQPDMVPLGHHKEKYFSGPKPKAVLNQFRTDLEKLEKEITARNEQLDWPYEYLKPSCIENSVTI
The test is described as follows: IC50 determination against h12-LOX. The conditions noted are these: methyl esters; 10 μM AA, pH 8.00; read-out: IC50 h12-LOX (methyl ester unsaturated fatty acids). The method, then: (§1) Overexpression and purification of his-tagged wild-type h12-LOX (Uniprot entry P18054), h15-LOX-1 (Uniprot entry P16050), and h15-LOX-2 (Uniprot entry O15296) were performed using nickel-affinity chromatography. The purity of h12-LOX, h15-LOX-1, and h15-LOX-2 was assessed using SDS gel as greater than 85%, and metal content was assessed with a Finnigan inductively coupled plasma mass spectrometer (ICP-MS, Thermo Fischer Scientific, San Jose, USA) via comparison with iron standard solution. Cobalt-EDTA was used as an internal standard. WT h5-LOX (UniProt entry P09917) was expressed in Rosetta 2 cells (Novagen) transformed with the pET14b-Stable-5-LOX plasmid (a gift from Marcia Newcomer of Louisiana State University) and grown in Terrific Broth containing 34 μg/mL chloramphenicol and 100 μg/mL ampicillin at 37 °C for 3.5 h, then placed at 20 °C for an additional 26 h. Cells were pelleted and resuspended in 50 mM Tris (pH 8.0), 500 mM NaCl, 20 mM imidazole with 1 μM pepstatin, 100 μM PMSF, and DNaseI (Sigma, Kanagawa, Japan). The cells were lysed in a French pressure cell and centrifuged at 40,000× g for 20 min at 4 °C. Saturated ammonium sulfate was added to achieve a final solution of 10% and inverted several times. The lysate was centrifuged at 40,000× g for 10 min at 4 °C. The pellet was discarded, and the supernatant was increased to a final concentration of 50% ammonium sulfate. The supernatant was rotated for 10 min at 4 °C then centrifuged at 40,000× g for 10 min at 4 °C. The pellet was split into 150 mg aliquots. The WT h5-LOX used for the kinetics in this work was not purified due to a dramatic loss in activity and was therefore prepared as an ammonium-sulfate precipitate.
IC50 values for each acyl-CoA were measured against h5-LOX, h12-LOX, h15-LOX-1, and h15-LOX-2. […] The fastest rates over 15 s intervals were recorded. […]

In test [2] the target is T2, h15-LOX-1 (Homo sapiens, UniProt P16050).
T2 construct: His tag; made in house
T2 sequence (P16050 1-662): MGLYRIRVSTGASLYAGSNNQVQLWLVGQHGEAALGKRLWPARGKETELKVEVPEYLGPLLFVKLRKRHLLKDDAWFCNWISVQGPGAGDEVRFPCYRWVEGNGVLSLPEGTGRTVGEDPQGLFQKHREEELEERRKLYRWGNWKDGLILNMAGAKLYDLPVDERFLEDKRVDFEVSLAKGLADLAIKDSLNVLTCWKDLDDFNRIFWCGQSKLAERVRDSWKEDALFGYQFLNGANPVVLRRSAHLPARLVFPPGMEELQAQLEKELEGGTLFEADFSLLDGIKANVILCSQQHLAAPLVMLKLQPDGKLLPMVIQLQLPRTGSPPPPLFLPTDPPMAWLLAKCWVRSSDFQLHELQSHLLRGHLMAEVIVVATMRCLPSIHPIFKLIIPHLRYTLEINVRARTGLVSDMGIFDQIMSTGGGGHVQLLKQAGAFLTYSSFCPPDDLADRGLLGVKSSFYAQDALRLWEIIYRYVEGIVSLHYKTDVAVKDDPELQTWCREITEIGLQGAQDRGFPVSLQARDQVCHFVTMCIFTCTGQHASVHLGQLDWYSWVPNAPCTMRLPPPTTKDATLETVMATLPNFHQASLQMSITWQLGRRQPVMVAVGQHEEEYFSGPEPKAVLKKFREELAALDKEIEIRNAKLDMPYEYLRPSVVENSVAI
The test is described as follows: IC50 determination against h15-LOX-1. Conditions: 10 μM AA, 25 mM HEPES pH 7.5, 0.01% Triton X-100, 22 °C. The method, then: as §1
(§2) IC50 values for each acyl-CoA were measured against h5-LOX, h12-LOX, h15-LOX-1, and h15-LOX-2. The reactions were carried out in 25 mM HEPES buffer (pH 8.00), 0.01% Triton X-100, and 10 μM AA for h12-LOX; 25 mM HEPES buffer (pH 7.5), 0.01% Triton X-100, and 10 μM AA for h15-LOX-1 and h15-LOX-2; and 50 mM HEPES buffer (pH 7.5), 100 µM EDTA, 50 mM NaCl, 200 µM ATP, and 10 μM AA for h5-LOX. IC50 reactions were implemented with h15-LOX-1 (0.125 μM), h12-LOX (0.300 μM), h15-LOX-2 (0.5 μM), and h5-LOX (∼600 nM ammonium sulfate salt) at 22 °C in a 1 cm^2 quartz cuvette containing 2 mL of the according buffer and 10 μM AA for no longer than 2 min to avoid any cleavage of the acyl-coenzyme A. Inhibitor concentrations ranging from 50 μM to 0.01 μM were used. All reactions were conducted using a Cary-UV Vis spectrophotometer (Agilent, Santa Clara, CA, USA). The fastest rates over 15 s intervals were recorded. IC50 values were obtained by determining the percent of inhibition of the enzymatic rate at ten inhibitor concentrations and plotting the rate against the inhibitor concentration, followed by a hyperbolic saturation curve fit. The saturation curve fits were performed in duplicate or triplicate, depending on the quality of the data. […] Through HPLC monitoring, we were able to determine a lack of degradation of the fatty acyl-CoAs over the first hour.

For test [3], the target named is T3, h15-LOX-2 (Homo sapiens, UniProt O15296).
T3 construct: His tag; made in house
T3 sequence (O15296 1-676): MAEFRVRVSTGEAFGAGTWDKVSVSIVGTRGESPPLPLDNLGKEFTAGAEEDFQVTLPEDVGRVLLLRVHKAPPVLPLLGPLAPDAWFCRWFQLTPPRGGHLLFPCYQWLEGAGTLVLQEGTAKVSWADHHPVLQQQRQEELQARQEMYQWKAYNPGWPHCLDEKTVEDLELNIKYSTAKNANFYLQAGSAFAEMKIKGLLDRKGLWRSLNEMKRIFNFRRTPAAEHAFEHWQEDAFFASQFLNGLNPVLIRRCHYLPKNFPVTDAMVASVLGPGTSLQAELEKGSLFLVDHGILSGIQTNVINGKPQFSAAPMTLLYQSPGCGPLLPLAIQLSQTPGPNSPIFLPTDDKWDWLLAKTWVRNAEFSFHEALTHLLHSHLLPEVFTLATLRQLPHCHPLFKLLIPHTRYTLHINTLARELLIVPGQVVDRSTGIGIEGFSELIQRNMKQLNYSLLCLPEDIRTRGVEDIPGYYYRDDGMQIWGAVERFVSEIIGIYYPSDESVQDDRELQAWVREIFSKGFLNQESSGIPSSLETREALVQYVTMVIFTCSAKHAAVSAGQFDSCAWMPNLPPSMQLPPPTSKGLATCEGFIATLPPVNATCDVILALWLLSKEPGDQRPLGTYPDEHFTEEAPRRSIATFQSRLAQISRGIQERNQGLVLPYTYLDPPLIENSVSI
The test is described as follows: IC50 determination against h15-LOX-2. Conditions: 10 μM AA, 25 mM HEPES pH 7.5, 0.01% Triton X-100, 22 °C. The procedure: as §1, §2

Test [4] concerns the target T2, h15-LOX-1. The test is described as follows: Substrate activity and kinetic parameters with h15-LOX-1. Conditions: acyl-CoAs tested at 70 µM; change in absorbance at 234 nm. The method, then: Considering that some of these acyl-CoAs could potentially be substrates for LOX isozymes, each acyl-CoA was tested at 70 µM against each LOX isozyme to establish the possibility of catalysis.
The same buffer as used to determine IC50 values for h5-LOX was used for product determination. Turnover was monitored by absorbance at 234 nm.

A value given as a limit tells only on which side of the number the result lay.

For `CCCCC/C=C\C/C=C\CCCCCCCCCCCC(=O)OC` [methyl-13Z,16Z-docosadienoic, methyl-13Z,16Z-docosadienoic (22:2)], the IC50 in test [1], in test [2] and in test [3] was more than 200 µM each time.

As to `CCCCC/C=C\C/C=C\C/C=C\C/C=C\CCCC(=O)OC` [methyl ester arachidonic acid], the “Substrate activity with h15-LOX-1” value in test [4] is given as “substrates”.

`CC/C=C\C/C=C\C/C=C\CC/C=C\CCCCCCCC(=O)OC` [methyl docosatetraenoate, methyl-9(Z),13(Z),16(Z),19(Z)-docosatetraenoate (22:4)]: the IC50 in test [1], in test [2] and in test [3] was more than 200 µM throughout.

Take `CC/C=C\C/C=C\C/C=C\CCCCCCCCCCCC(=O)OC` [methyl 13(Z),16(Z),19(Z)-docosatrienoate, methyl-13(Z),16(Z),19(Z)-docosatrienoate (22:3)]: the IC50 in test [1], in test [2] and in test [3] was more than 200 µM each time.

These data come from PMC10341549, “Inhibitory Investigations of Acyl-CoA Derivatives against Human Lipoxygenase Isozymes” (International Journal of Molecular Sciences, 2023).
